# Reference: PMC10572602, “Molecular Mechanism of STIL Coiled-Coil Domain Oligomerization” (International Journal of Molecular Sciences, 2023)
# Tests used:
# [1] = system: STIL CCD peptide; test: AUC sedimentation velocity (SV), oligomeric state; type: physicochemical; settings: for sw / mw (solution mass from c(s) fit) / f/f0 / sw(20,w) / oligomeric state (average number of monomers in the oligomer): AUC-SV, 60 krpm; for sw / mw (solution mass from c(s) fit) / oligomeric state (average number of monomers in the oligomer): 20 °C; for sw / mw (solution mass from c(s) fit) / f/f0 / sw(20,w): pH 6.8; for mw (solution mass from c(s) fit) / oligomeric state (average number of monomers in the oligomer): 95% confidence level; for oligomeric state (average number of monomers in the oligomer): continuous c(s), 25 mM sodium phosphate pH 6.8, NaCl
# Description: Previously, we and others have shown by size-exclusion chromatography and multi-angle light scattering that the oligomerization of a STIL CCD peptide is concentration dependent. However, these studies were qualitative and the interaction was not quantified. To quantify the oligomerisation of the STIL CCD peptide, analytical ultracentrifugation (AUC) sedimentation velocity (SV) and sedimentation equilibrium (SE) experiments were performed (Figure 2A, Table 1 and Figures S4–S9, S18 and S19). AUC-SV experiments were conducted at several concentrations to explore how the oligomeric state changed with concentration in the low-to-high µM concentration range, and also to estimate the dissociation constants of the oligomerization of the STIL CCD peptide.
# (§1) Analytical ultracentrifugation (AUC) experiments were carried out using a Beckman Optima XL-A or XL-I analytical ultracentrifuge. Measurements were performed at 20 °C unless otherwise stated, using an An-50 or An-60 rotor, in Sodium Phosphate Buffer pH 6.8 (25 mM Na2PO4 with addition of 137 mM NaCl, pH measured using Jenway (TM) 3510 benchtop and adjusted using 1M HCl and 1M NaOH solutions). The partial specific volume ( υ¯ ) for each peptide were calculated in Sedfit using values from Cohn and Edsall. The buffer densities and viscosities were calculated using UltraScan III [54].
# Sedimentation velocity (SV) experiments were performed in EPON 2-channel centerpieces with quartz windows or aluminium centrepieces with sapphire windows. The samples were centrifuged at 50 or 60 krpm where stated, with absorbance measurements taken from a radial range of 5.7–7.3 cm. 120 scans were taken at 5 min intervals, the data were fit in Sedfit to a continuous c(s) distribution model at a 95% confidence level. The frictional ration and baseline were floated, and Time-invariant and Radial-invariant noise were fit. Initially data were fit between a range of Svedberg ratio of 0–15, but this was reduced to 0–3 for all data as there were no larger species. The residuals for each individual fit are shown in Figures S14–S17 as a bitmap in which the color indicates the difference between the model fit and the raw data over the radial range to which the data were fitted. The scans are in vertical chronological order.
# [2] = system: STIL CCD peptide; test: AUC sedimentation equilibrium (SE), oligomeric state; type: physicochemical; settings: starting concentration 500 µM, triplicate, absorbance 280 nm, 95% confidence limits
# Description: To quantify the dissociation constants of the possible monomer-dimer and dimer-tetramer transitions, we used fluorescence-based binding measurements. Using micro-scale thermophoresis, fluorescence measurements were taken at increasing concentrations of WT CCD peptide in a fixed background of 5 µM fluorophore-labelled peptide. […] Fitting the fluorescence data to the Hill equation provided a dissociation constant of 8 ± 2 µM and a cooperativity of 1.2 ± 0.3 (Figure 2B, Table S4). We interpret this as being for the monomer-dimer transition, and that the fluorescence measurements are insensitive to the higher-order oligomerization. […] To probe the possible dimer-tetramer transition, we turned to AUC-SE measurements with starting concentrations of 5, 10, and 20 µM of STIL WT CCD peptide (Figures S18 and S19). The equilibrated data were fitted first to a model for a single ideal species, which provided a species 2.9 × monomer mass (Table 1). […] It should be noted that the dimerization constant of the WT peptide was measured in the presence of 5% DMSO and using a fluorophore-labeled peptide, while the tetramerization constant was measured without DMSO and unlabeled peptides. The addition of the label and the presence of the DMSO, which was unavoidable for making the labeled peptide soluble, may have affected the measured dimerization constant. Thus, we avoid directly comparing the values obtained by the two methods.
# as §1
# AUC sedimentation equilibrium (SE) experiments were run at multiple concentrations in a 6-Channel Epon charcoal-filled centerpiece. The samples were centrifuged at a range of speeds between 22–48 krpm. Absorbance scans across the radial range were recorded twice at each speed to ensure equilibration. Data were fitted to single, ideal species models or monomer-dimer equilibrium using Sedphat. In total, 95% confidence limits were obtained via Monte-Carlo analysis of the obtained fits. The quality of the fit was evaluated using the χ^2 parameter to observe which model best fit the data. Both fits of the data, where performed in Figures S18–S23 with their corresponding fit information.
# [3] = target: T1, STIL CCD peptide (Homo sapiens, UniProt Q15468, L736E); test: Fluorescence-based binding (micro-scale thermophoresis instrument), self-association; settings: 5 µM labeled + unlabelled same peptide 9 nM–300 µM; 25 mM Na2PO4 pH 6.8, 5% DMSO
# T1 construct: STIL CCD718–749 WT; made in house; host or cells: chemical synthesis (Fmoc-SPPS on rink amide, C-terminal amide)
# T1 sequence (Q15468 718-749 L736E): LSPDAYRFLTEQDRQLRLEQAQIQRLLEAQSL
# [4] = CD spectroscopy, helicity; type: physicochemical; settings: 5 °C
# From the text: Next, we used circular dichroism (CD) spectroscopy to probe the secondary structures of these WT CCD peptide assemblies. […] The spectra all had minima at 208 and 222 nm indicative of largely α-helical structures. From the high-concentration spectra we estimated ≈47% helix. To compare how the stabilities of these helical assemblies changed with concentration, we followed the changes in MRE222 with temperature over the same concentration range (Figure 2D, Table S1). Sigmoidal curves indicative of cooperative unfolding were apparent at all concentrations, indicating a cooperatively folded, oligomeric species. […] The temperature-dependent CD measurements were performed to determine the oligomerization-dependent thermal stability of the CCD. […] CD spectra of the peptides were recorded using a J-810 spectropolarimeter (Jasco) in a 0.1 cm and 1 cm quartz cuvette for far-UV CD spectroscopy, in a spectral range of 190 nm to 260 nm. The buffer used in the CD measurements was 25 mM sodium phosphate buffer pH = 6.8 with ionic strength of 154 mM (adjected by NaCl). The thermal melting of all STIL CCD peptides were measured as described. The graphs were fitted to Boltzmann equation in order to generate the Tm. Normalization to mean residue ellipticity was performed. The 100% helicity was calculated (with normalization to the length of the peptide and the condition of the measurement) as MRE × 10^−3 of −38 (Deg × cm^2 × dmol^−1 × res^−1).
# [5] = ref [14]; cited from earlier work
# From the text: Presumably, this is due to the disruption of the hydrophobic CC interactions upon mutation from the hydrophobic Leu to the charged Glu. […] Other ...
substance,measurement,setting,value
"L SPDAYRF LTEQDRQ LRLEQAQ IQRLLEA QSL-NH2 [STIL CCD718–749 L736E, STIL CCD peptide with destabilising L736E mutation; PDB 8oyk]",Oligomeric State (at 10 µM),[1]; 10 µM,Monomer
same,sw,[1]; 10 µM,0.590 S
same,mw (solution mass from c(s) fit),[1]; 10 µM,3849 Da
same,f/f0,[1]; 10 µM,1.460
same,"sw(20,w)",[1]; 10 µM,0.608 S
same,oligomeric state (average number of monomers in the oligomer),"[1]; 10 µM, absorbance",1.00 × monomer mass
same,oligomeric state (average number of monomers in the oligomer),"[1]; 10 µM, absorbance, listed as CCD718–749-L736E",1 × monomer mass
same,oligomeric state (average number of monomers in the oligomer),"[1]; 10 µM, absorbance, listed as STIL-L736E",1.0 × monomer mass
same,sw,[1]; 500 µM,0.721 S
same,mw (solution mass from c(s) fit),[1]; 500 µM,3871 Da
same,f/f0,[1]; 500 µM,1.201
same,"sw(20,w)",[1]; 500 µM,0.742 S
same,oligomeric state (average number of monomers in the oligomer),[1]; 500 µM,1 × monomer mass
same,oligomeric state (average number of monomers in the oligomer),"[1]; 500 µM, listed as STIL-L736E",1.0 × monomer mass
same,"mass, single species model, SE",[2],3038 ± 292 Da
same,"AUC oligomeric state, SE","[2]; single species fit, 20 °C, pH 6.8",0.79 ± 0.08 (500 µM) × monomer mass
same,binding or oligomerization (in words),[3],no binding or oligomerization
same,concentration dependence of CD spectrum / helical folding (in words),"[4]; different peptide concentrations (WT 5–100 µM), pH 6.8",no concentration dependence
same,MRE222 nm,"[4]; CD at 50 µM, 25 mM sodium phosphate pH 6.8, 154 mM NaCl",−23.3 kdeg cm^2 dmol^−1 res^−1
same,% Helicity,"[4]; from MRE222 (100% = −38), CD at 50 µM, 25 mM sodium phosphate pH 6.8, 154 mM NaCl",62%
same,thermal stability of mutant peptide (in words),[5],leads to a decrease in its thermal stability
